Consider one molecule from patent publication US20080255186A1, “Pyrazolo[3,4-B]Pyridine Compound, and Its Use as a Pde4 Inhibitor” (priority 2005, published 2008).

The target in assay [1] is PDE4D (human recombinant) (Homo sapiens, UniProt Q08499). Description: PDE4D inhibition, IMAP Fluorescence Polarisation (FP) assay. The conditions noted are these: mean of n = 3 readings; accurate to about ±0.5 log unit; read-out: PDE4D pIC50 (± about 0.5) (FP assay), Mean pIC50 value (converted). Type of assay: biochemical. An excerpt:
Human recombinant PDE4D (HSPDE4D3A) is disclosed in P. A. Baecker et al., “Isolation of a cDNA encoding a human rolipram-sensitive cyclic AMP phoshodiesterase (PDE IVD)”, Gene, 1994, 138, 253-256.
The ability of compounds to inhibit catalytic activity at PDE4B (human recombinant) or PDE4D (human recombinant) can optionally be determined by IMAP Fluorescence Polarisation (FP) assay (IMAP Explorer kit, available from Molecular Devices Corporation, Sunnydale, Calif., USA; Molecular Devices code: R8062) in 384-well format.
The IMAP FP assay is able to measure PDE activity in an homogenous, non-radioactive assay format. […] Binding of Fl-AMP product to the beads (coated with the immobilised trivalent cations) slows the rotation of the bound Fl-AMP and leads to an increase in the fluorescence polarisation ratio of parallel to perpendicular light. […]
Test compounds (small volume, e.g. ca. 0.5 to 1 microlitres (ul), suitably ca. 0.5 ul, of solution in DMSO) are preincubated at ambient temperature (room temperature, e.g. 19-23° C.) in black 384-well microtitre plates (supplier: NUNC, code 262260) with PDE enzyme in 10 mM Tris-HCl buffer pH 7.2, 1 mM MgCl2, 0.1% (w/v) bovine serum albumin, and 0.05% NaN3 for 10-30 minutes. […] The Fluorescence Polarisation (FP) ratio of parallel to perpendicular light is measured using an Analyst™ plate reader (from Molecular Devices Corporation). […]

A further assay concerns the target PDE5 (human recombinant) (Homo sapiens, UniProt O76074). Put plainly: PDE5 inhibition (FP or SPA general type of assay). The conditions noted are these: in the particular assays used. Type of assay: biochemical. From the text:
Human recombinant PDE5 is disclosed in K. Loughney et al., “Isolation and characterisation of cDNAs encoding PDE5A, a human cGMP-binding, cGMP-specific 3′,5′-cyclic nucleotide phosphodiesterase”, Gene, 1998, 216, 139-147.
The ability of compounds to inhibit catalytic activity at PDE4B or 4D (human recombinant), PDE3 (from bovine aorta), PDE5 (human recombinant) or PDE6 (from bovine retina) can optionally be determined by Scintillation Proximity Assay (SPA) in a 96-well format.
Test compounds (as a solution in DMSO, suitably about 2 microlitre (ul) volume of DMSO solution) are preincubated at ambient temperature (room temperature, e.g. 19-23° C.) in Wallac Isoplates (code 1450-514) with PDE enzyme in 50 mM Tris-HCl buffer pH 7.5, 8.3 mM MgCl2, 1.7 mM EGTA, 0.05% (w/v) bovine serum albumin for 10-30 minutes (usually 30 minutes). […] Bound radioactive product is measured using a WALLAC TRILUX 1450 Microbeta scintillation counter. […] Curves are analysed using ActivityBase and XLfit (ID Business Solutions Limited, 2 Ocean Court, Surrey Research Park, Guildford, Surrey GU2 7QB, United Kingdom). Results are expressed as pIC50 values.
The compound of the invention (e.g. as prepared in Example 1) has also been tested for PDE3, PDE5 and PDE6 inhibition, e.g. using (independently for each PDE type) either a Fluorescence Polarisation (FP) general type of assay or using an SPA general type of assay.

Chain of PDE4D (human recombinant) (Q08499 1-673 isoform Q08499-2): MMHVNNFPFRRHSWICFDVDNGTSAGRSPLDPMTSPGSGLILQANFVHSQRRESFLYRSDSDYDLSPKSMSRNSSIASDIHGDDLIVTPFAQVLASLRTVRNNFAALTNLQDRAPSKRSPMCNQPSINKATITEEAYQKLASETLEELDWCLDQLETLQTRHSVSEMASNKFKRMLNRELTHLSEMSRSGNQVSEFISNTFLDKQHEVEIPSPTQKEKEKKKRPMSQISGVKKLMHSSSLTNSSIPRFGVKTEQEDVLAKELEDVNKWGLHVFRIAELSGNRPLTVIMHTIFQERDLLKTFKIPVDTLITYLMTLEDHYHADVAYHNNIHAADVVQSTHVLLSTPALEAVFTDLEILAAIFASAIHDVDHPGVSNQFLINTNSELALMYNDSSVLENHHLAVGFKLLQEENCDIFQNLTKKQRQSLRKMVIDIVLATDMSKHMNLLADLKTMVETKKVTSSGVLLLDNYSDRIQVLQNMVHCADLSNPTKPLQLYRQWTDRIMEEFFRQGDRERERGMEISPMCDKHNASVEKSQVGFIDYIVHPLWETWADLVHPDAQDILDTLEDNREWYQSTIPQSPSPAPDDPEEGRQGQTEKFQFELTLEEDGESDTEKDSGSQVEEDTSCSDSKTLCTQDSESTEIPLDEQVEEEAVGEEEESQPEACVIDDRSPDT

For the molecule `CCc1nc2c(cnn2CC)c(NC2CCOCC2)c1CNC(=O)c1cc(C)no1` [Example 1, N-{[1,6-diethyl-4-(tetrahydro-2H-pyran-4-ylamino)-1H-pyrazolo[3,4-b]pyridin-5-yl]methyl}-3-methyl-5-isoxazolecarboxamide], the IC50 in assay [1] is around 0.1 nM. In addition, the “PDE4B pIC50 compared with PDE5 pIC50 (selectivity)” value at PDE5 (human recombinant) was “inhibits PDE4B more strongly than it inhibits PDE3, PDE5 and PDE6”.
